The record followed here is ChEMBL document CHEMBL5653631, “A Potent and Selective ULK1 Inhibitor Suppresses Autophagy and Sensitizes Cancer Cells to Nutrient Stress” (iScience, 2018).

The target of test [1] is Mast/stem cell growth factor receptor Kit (Homo sapiens) (UniProt P10721). Nature of the test: Inhibition of human recombinant KIT at 15 nM in presence of ATP by radiometric assay relative to control.
For test [2], the target named is T1, Serine/threonine-protein kinase tousled-like 1 (Homo sapiens) (UniProt Q9UKI8).
T1 sequence (whole entry): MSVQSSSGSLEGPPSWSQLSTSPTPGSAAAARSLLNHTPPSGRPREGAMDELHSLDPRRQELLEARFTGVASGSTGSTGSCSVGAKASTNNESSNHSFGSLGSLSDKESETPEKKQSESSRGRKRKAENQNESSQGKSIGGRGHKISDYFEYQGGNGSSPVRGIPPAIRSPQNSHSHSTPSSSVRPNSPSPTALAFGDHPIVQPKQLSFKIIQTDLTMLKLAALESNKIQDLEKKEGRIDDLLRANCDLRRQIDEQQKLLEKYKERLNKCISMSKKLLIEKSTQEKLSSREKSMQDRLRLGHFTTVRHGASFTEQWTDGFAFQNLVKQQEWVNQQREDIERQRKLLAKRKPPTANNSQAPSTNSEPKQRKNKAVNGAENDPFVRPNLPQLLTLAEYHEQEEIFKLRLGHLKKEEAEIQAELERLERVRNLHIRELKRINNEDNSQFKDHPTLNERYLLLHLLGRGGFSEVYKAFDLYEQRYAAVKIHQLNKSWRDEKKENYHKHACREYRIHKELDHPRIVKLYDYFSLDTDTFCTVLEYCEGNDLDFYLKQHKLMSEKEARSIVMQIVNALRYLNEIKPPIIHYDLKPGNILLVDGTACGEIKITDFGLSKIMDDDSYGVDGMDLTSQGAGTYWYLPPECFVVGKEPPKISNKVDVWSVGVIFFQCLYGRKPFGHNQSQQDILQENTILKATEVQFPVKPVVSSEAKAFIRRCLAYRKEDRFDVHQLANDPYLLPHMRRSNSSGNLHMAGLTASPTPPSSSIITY
Nature of the test: Inhibition of human recombinant TLK1 at 15 nM in presence of ATP by radiometric assay relative to control.

Test [3] concerns the target T2, Tyrosine-protein kinase receptor TYRO3 (Homo sapiens) (UniProt Q06418).
T2 sequence (whole entry): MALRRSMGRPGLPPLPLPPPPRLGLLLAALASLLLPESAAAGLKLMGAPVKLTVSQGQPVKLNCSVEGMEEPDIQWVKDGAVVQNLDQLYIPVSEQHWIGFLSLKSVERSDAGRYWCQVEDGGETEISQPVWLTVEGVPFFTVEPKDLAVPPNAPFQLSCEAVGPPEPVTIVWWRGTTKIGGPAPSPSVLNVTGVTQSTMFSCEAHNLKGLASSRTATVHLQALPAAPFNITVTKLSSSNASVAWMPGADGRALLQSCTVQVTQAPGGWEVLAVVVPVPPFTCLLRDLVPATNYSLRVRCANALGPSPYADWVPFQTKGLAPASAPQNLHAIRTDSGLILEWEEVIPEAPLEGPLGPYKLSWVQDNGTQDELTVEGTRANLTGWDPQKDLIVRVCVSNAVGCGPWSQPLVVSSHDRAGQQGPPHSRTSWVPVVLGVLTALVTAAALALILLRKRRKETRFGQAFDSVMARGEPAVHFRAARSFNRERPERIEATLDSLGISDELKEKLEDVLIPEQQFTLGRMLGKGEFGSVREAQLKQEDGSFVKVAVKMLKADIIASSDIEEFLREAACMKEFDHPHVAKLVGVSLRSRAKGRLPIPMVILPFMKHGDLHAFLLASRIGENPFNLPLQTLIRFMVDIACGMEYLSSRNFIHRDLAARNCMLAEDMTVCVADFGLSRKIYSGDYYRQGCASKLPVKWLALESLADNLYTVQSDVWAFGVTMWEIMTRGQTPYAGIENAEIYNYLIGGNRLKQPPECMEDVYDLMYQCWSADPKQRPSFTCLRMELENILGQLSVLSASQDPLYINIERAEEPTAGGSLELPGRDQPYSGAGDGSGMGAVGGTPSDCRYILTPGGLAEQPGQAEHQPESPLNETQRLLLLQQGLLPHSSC
Put plainly: Inhibition of human recombinant TYRO3 at 40 nM related to control ULK1.

Test [4] is filed under the species Homo sapiens. Nature of the test: Inhibition of human recombinant KHS1 at 40 nM in presence of ATP by radiometric assay relative to control.
Test [5] deals with T3, Tyrosine-protein kinase TXK (Homo sapiens) (UniProt P42681).
T3 sequence (whole entry): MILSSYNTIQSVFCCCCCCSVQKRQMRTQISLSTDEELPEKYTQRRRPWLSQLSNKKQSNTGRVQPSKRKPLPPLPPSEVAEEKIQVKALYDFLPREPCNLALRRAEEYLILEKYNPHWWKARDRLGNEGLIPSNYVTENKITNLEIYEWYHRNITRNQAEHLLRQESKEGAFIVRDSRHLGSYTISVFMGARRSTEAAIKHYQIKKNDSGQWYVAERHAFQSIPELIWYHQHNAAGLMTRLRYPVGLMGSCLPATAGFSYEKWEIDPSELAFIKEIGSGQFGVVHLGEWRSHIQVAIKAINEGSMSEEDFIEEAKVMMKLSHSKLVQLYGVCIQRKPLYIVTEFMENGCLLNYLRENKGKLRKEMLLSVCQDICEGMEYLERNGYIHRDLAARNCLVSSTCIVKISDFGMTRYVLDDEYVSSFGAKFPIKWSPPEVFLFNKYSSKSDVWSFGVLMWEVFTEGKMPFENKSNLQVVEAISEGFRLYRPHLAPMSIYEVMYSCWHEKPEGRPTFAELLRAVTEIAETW
Put plainly: Inhibition of human recombinant TXK at 40 nM related to control ULK1.

Mast/stem cell growth factor receptor Kit (Homo sapiens), sequence (P10721 whole entry): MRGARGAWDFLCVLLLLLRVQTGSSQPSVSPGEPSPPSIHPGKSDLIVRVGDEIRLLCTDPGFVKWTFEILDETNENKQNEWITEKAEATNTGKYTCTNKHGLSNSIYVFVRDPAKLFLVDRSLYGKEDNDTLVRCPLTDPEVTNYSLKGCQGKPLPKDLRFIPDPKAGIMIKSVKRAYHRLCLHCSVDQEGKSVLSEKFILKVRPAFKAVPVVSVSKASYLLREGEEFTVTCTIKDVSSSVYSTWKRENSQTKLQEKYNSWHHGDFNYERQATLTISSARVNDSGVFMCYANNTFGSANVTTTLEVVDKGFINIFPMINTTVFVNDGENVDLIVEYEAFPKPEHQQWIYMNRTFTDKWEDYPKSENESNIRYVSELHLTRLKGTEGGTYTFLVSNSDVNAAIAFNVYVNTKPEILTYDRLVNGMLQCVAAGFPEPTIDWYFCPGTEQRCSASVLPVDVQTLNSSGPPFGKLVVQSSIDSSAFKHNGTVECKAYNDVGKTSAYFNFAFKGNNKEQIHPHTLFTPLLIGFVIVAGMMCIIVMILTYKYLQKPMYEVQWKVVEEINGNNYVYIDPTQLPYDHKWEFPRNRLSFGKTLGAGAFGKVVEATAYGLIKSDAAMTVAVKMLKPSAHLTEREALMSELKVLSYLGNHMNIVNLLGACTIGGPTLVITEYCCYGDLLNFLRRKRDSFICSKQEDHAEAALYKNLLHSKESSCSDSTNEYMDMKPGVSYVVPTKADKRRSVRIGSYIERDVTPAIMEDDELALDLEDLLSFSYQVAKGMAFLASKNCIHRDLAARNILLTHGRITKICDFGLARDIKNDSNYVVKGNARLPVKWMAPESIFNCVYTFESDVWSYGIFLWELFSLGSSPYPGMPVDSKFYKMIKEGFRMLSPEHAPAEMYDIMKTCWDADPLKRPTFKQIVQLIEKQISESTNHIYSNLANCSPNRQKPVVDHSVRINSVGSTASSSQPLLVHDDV

Turning to `CC(C)[C@H](NC(=O)c1cc(-c2cnn3cc(-c4ccc(OCCN5CCCCC5)cc4)cnc23)cs1)C(F)(F)F`, the inhibition in test [1] and in test [2] was 0% throughout.
As for `O=C(N[C@@H](C1CC1)C(F)(F)F)c1cc(-c2cnn3cc(-c4ccc(F)cc4)cnc23)cs1`, the fold change (FC) came to 0 in test [3] and 0.18 in test [5]. Also, in test [4], the inhibition (as a rule, how much of the control response was suppressed) is 0%.
